Experimental data: patent US11760773B2, “Small molecule drug conjugates of gemcitabine monophosphate” (MaveriX Oncology, Inc., priority 2018, dated 2023)

Legend:
[1] = system: UT-SCC-24A; experiment: Tumor cell proliferation (alamarBlue) cytotoxicity assay, UT-SCC-24A; assay type: cell-based, human; details: Homo sapiens, 72 hours treatment
Method: (§1) A tumor cell proliferation assay was used to determine cytotoxicity IC50 values for the phosphate prodrug Compounds 1-9, the parent non-phosphorylated SMDC parent compounds, and the effector (gemcitabine) across eight primary early-passage human head and neck squamous cell carcinoma cell lines including UT-SCC-5, UT-SCC-8, UT-SCC-9, UT-SCC-10, UT-SCC-14, UT-SCC-16A, UT-SCC-16B, and UT-SCC-24A.
(§2) UTSCC cells were seeded at 4000 cells/100 I/well on 96-well black clear-bottom tissue culture plate. Cells were incubated at 37° C. and 5% CO2 overnight to allow them to recover and re-attach. The next day cells were treated with the test compound (0-100 μM) for 72 hours. After treatment, cell proliferation was measured by Fluorescent quantitation of alamarBlue reagent. The alamarBlue assay incorporates a fluorometric/colorimetric growth indicator based on detection of metabolic activity. Specifically, resazurin, the active ingredient of alamarBlue reagent, is blue in color and virtually non-fluorescent. Upon entering cells, resazurin is reduced to resorufin, a compound that is red in color and highly fluorescent.
(§3) Continued cell growth maintains a reduced environment, therefore increasing the overall fluorescence and color of the media surrounding cells. The fluorescence intensity of alamarBlue reagent was directly proportional to cell number. To perform the alamarBlue assay, 10 I of alamarBlue reagent was added to each well and the plate was incubated at 37° C. for an additional 2 hour. Fluorescence intensity was measured at an excitation of 530 nm and an emission of 590 nm using a BioTek Synergy™ 2 microplate reader.
(§4) Cell proliferation assays in triplicate were performed at each concentration. The fluorescent intensity data were analyzed using the computer software, Graphpad Prism. In the absence of the compound, the fluorescent intensity (Ft) in each data set was defined as 100%. In the absence of cells, the fluorescent intensity (Fb) in each data set was defined as 0%. The percent cell in the presence of each compound was calculated according to the following equation: % cell=(F−Fb)/(Ft−Fb), where F=the fluorescent intensity in the presence of the compound, Fb=the fluorescent intensity in the absence of cells, and Ft=the fluorescent intensity in the absence of the compound. The values of % cell versus a series of compound concentrations were then plotted using non-linear regression analysis of Sigmoidal dose-response curve generated with the equation Y=B+(T−B)/1+10^((Log EC50-X)×Hill Slope) where Y=percent cell, B=minimum percent cell, T=maximum percent cell, X=logarithm of compound and Hill Slope=slope factor or Hill coefficient. The IC50 value was determined by the concentration causing a half-maximal percent activity.

[2] = Metabolic stability in liver hepatocytes, mouse; assay type: in vitro ADME
[3] = system: UT-SCC-14; experiment: Tumor cell proliferation (alamarBlue) cytotoxicity assay, UT-SCC-14; assay type: cell-based, human; details: Homo sapiens; UT-SCC-14, 72 hours treatment
Method: as §1, §2, §3, §4

[4] = Liver microsomal stability, human; assay type: in vitro ADME; details: for microsomal CLint: human, liver microsomes
[5] = Comparative plasma PK of Int 1-4 versus gemcitabine in mouse (study a); assay type: in vivo; details: CD-1 mice
[6] = Comparative dog plasma PK of Int 1-4 versus gemcitabine (study k); assay type: in vivo; details: male beagle dog; for MRT inf: read-out: MRT0-inf; for MRT last: read-out: MRT0-last; for Vd: read-out: Vdss
Method: Objectives: to compare the plasma pharmacokinetics and stability of Int-4 in plasma following single intravenous infusion administration of Int 1-4 at 5 mg/kg and 10 mg/kg versus gemcitabine at 5 mg/kg in the male Beagle dog

[7] = Metabolic stability in liver hepatocytes, rat; assay type: in vitro ADME
[8] = Metabolic stability in liver hepatocytes, monkey; assay type: in vitro ADME
[9] = Metabolic stability in liver hepatocytes, dog; assay type: in vitro ADME
[10] = system: UT-SCC-10; experiment: Tumor cell proliferation (alamarBlue) cytotoxicity assay, UT-SCC-10; assay type: cell-based, human; details: Homo sapiens; UT-SCC-10, 72 hours treatment
Method: as §1, §2, §3, §4

[11] = system: UT-SCC-16A; experiment: Tumor cell proliferation (alamarBlue) cytotoxicity assay, UT-SCC-16A; assay type: cell-based, human; details: Homo sapiens, 72 hours treatment
Method: as §1, §2, §3, §4

[12] = Metabolic stability in liver hepatocytes, human; assay type: in vitro ADME
[13] = Plasma PK of Int 3-3 in CD-1 mice (study c); assay type: in vivo; details: after iv Int 3-3 8.8 mg/kg
Method: Objectives: to determine the plasma pharmacokinetics of Int 3-3 following a single intravenous infusion of Int 3-3 at 8.83 mg/kg in CD-1 mice
PK measurements: compare PK parameters C0, CL, Vdss, Cmax, tmax, t1/2, AUC(0-t), AUC(0-inf), MRT(0-t), MRT(0-inf) for Int 3-3.

[14] = in the clinic; cited from earlier work
[15] = Comparative dog plasma PK of Int 1-4 versus gemcitabine (study k); assay type: in vivo; details: male beagle dog, after iv gemcitabine 5.29 mg/kg
[16] = mouse, plasma, after iv Int 1-4 9.4 mg/kg
[17] = plasma, after iv Int 1-4 9.4 mg/kg
[18] = after iv Int 1-4 5 mg/kg (study k)
[19] = after iv Int 1-4 10 mg/kg (study k)
[20] = negative value indicates compound is stable, read-out: t1/2 mean ± SE
[21] = after iv gemcitabine 5.29 mg/kg
[22] = plasma, after iv gemcitabine 5.29 mg/kg

COc1cc(OC)c2oc(COC(=O)Nc3ccn([C@@H]4O[C@H](CO)[C@@H](O)C4(F)F)c(=O)n3)cc2c1 [Int 1-4, (5,7-di(methoxy)benzofuran-2-yl)methyl (1-((2R,4R,5R)-3,3-difluoro-4-hydroxy-5-(hydroxymethyl)tetrahydrofuran-2-yl)-2-oxo-1,2-dihydropyrimidin-4-yl)carbamate]
IC50 [1]: 0.02 µM | Slope Mean ± SE [2]: −0.006655 ± 0.00081 | half-life ([2]; read-out: t1/2 mean ± SE): 1.73 ± 0.212 h | IC50 [3]: 0.013 µM | half-life ([4]; human liver microsomes): 30.8 h | Compound Remaining (% of 0 min) 0 min ([4]; human liver microsomes, 0 min): 100 % of 0 min | Compound Remaining (% of 0 min) 5 min ([4]; human liver microsomes, 5 min): 111 % of 0 min | Compound Remaining (% of 0 min) 15 min ([4]; human liver microsomes, 15 min): 94.0 % of 0 min | Compound Remaining (% of 0 min) 30 min ([4]; human liver microsomes, 30 min): 107 % of 0 min | Compound Remaining (% of 0 min) 45 min ([4]; human liver microsomes, 45 min): 99.9 % of 0 min | Compound Remaining (% of 0 min) control ([4]; human liver microsomes, control): 102 % of 0 min | microsomal CLint [4]: 0.747 µL/min/mg | microsomal CLint ([4]; text value): 0.75 µL/min/mg | plasma clearance and tissue uptake ([5]; after iv Int 1-4): quickly clears the plasma | AUC(0-t) [5, 16]: 4980 ng·h/mL | C0 [5, 16]: 78000 ng/mL | clearance [5, 16]: 27.1 mL/min/kg | half-life [5, 16]: 1.06 h | AUC(0-inf) ([5]; mouse, plasma, after iv Int 1-4 9.4 mg/kg, read-out: AUC0-inf): 5000 ng·h/mL | MRT inf ([5]; mouse, plasma, after iv Int 1-4 9.4 mg/kg, read-out: MRT0-inf): 0.346 h | MRT last ([5]; mouse, plasma, after iv Int 1-4 9.4 mg/kg, read-out: MRT0-last): 0.328 h | Vd ([5]; mouse, plasma, after iv Int 1-4 9.4 mg/kg, read-out: Vdss): 0.566 L/kg | AUC0-inf/AUC0-last [5, 17]: 100% | AUC(0-t) [6, 18]: 2700 ng·h/mL | C0 [6, 18]: 40000 ng/mL | clearance [6, 18]: 30.8 mL/min/kg | half-life [6, 18]: 0.25 h | AUC(0-inf) ([6]; after iv Int 1-4 5 mg/kg (study k), read-out: AUC0-inf): 2730 ng·h/mL | Cmax ([6]; after iv Int 1-4 5 mg/kg (study k), read-out: Cmax): 30500 ng/mL | MRT inf [6, 18]: 0.12 h | MRT last [6, 18]: 0.11 h | Vd [6, 18]: 0.23 L/kg | AUC(0-t) [6, 19]: 7930 ng·h/mL | C0 [6, 19]: 90900 ng/mL | clearance [6, 19]: 43.3 mL/min/kg | half-life [6, 19]: 0.52 h | AUC(0-inf) ([6]; after iv Int 1-4 10 mg/kg (study k), read-out: AUC0-inf): 7940 ng·h/mL | MRT inf [6, 19]: 0.23 h | MRT last [6, 19]: 0.22 h | Vd [6, 19]: 0.58 L/kg | Slope Mean ± SE [7]: −0.007701 ± 0.001794 | half-life [7, 20]: 1.5 ± 0.35 h | Slope Mean ± SE [8]: −0.005018 ± 0.001425 | half-life [8, 20]: 2.3 ± 0.653 h | Slope Mean ± SE [9]: −0.00433 ± 0.001287 | half-life [9, 20]: 2.67 ± 0.793 h | IC50 [10]: 0.009 µM | IC50 [11]: 0.138 µM | Slope Mean ± SE [12]: −0.003031 ± 0.001361 | half-life ([12]; read-out: t1/2 mean ± SE): 3.81 ± 1.71 h

O=c1ccn(C2OC(CO)C(O)C2(F)F)c(=O)[nH]1 (stereo not shown) [dFdU]
AUC0-inf/AUC0-last [13]: 146% | AUC0-last [13]: 942 ng·h/mL | AUC(0-inf) [13]: 1403 ng·h/mL | Cmax [13]: 168 ng/mL | MRT0-inf [13]: 7.48 h | MRT0-last [13]: 3.67 h | T1/2 [13]: 5.22 h | Tmax [13]: 4.00 h | share of the dose recovered in urine found as this species [14]: 99% | plasma levels of dFdU higher than gemcitabine, based on the ratios of AUC0-last [5, 21]: ~500% | AUC0-inf/AUC0-last [5, 17]: 120% | AUC0-last [5, 17]: 1039 ng·h/mL | AUC(0-inf) [5, 17]: 1440 ng·h/mL | Cmax [5, 17]: 253 ng/mL | MRT0-inf [5, 17]: 4.65 h | MRT0-last [5, 17]: 2.73 h | T1/2 [5, 17]: 3.08 h | Tmax [5, 17]: 1.00 h | AUC0-inf/AUC0-last [5, 22]: 111% | AUC0-last [5, 22]: 6827 ng·h/mL | AUC(0-inf) [5, 22]: 8187 ng·h/mL | Cmax [5, 22]: 1600 ng/mL | MRT0-inf [5, 22]: 3.49 h | MRT0-last [5, 22]: 2.56 h | T1/2 [5, 22]: 2.23 h | Tmax [5, 22]: 0.667 h | AUC0-last [6, 18]: 9863 ng·h/mL | AUC(0-inf) [6, 18]: 13743 ng·h/mL | Cmax [6, 18]: 715 ng/mL | MRT0-inf [6, 18]: 18.22 h | MRT0-last [6, 18]: 9.89 h | Tmax [6, 18]: 4.00 h | t1/2 [6, 18]: 11.79 h | AUC0-last [6, 19]: 11700 ng·h/mL | AUC(0-inf) [6, 19]: 13800 ng·h/mL | Cmax [6, 19]: 936 ng/mL | MRT0-inf [6, 19]: 12.99 h | MRT0-last [6, 19]: 8.94 h | Tmax [6, 19]: 2.00 h | t1/2 [6, 19]: 8.40 h | AUC0-last [6, 21]: 20133 ng·h/mL | AUC(0-inf) [6, 21]: 23967 ng·h/mL | Cmax [6, 21]: 1813 ng/mL | MRT0-inf [6, 21]: 13.31 h | MRT0-last [6, 21]: 8.71 h | Tmax [6, 21]: 3.00 h | t1/2 [15]: 8.55 h
